In PubChem BioAssay AID330 (DTP/NCI, 2004):
Several values for one entry are separate records, joined by “and”; a condition that tells them apart may be missing. Equal entries are not always repeated. Toxic doses and inconclusive results are not listed.

Test system: P388 leukemia ip, CD2F1 mice, survival T/C
Test: NCI In Vivo Anticancer Drug Screen. Data for tumor model P388 Leukemia (intraperitoneal) in CD2F1 (CDF1) mice
Settings: endpoint: median survival time, higher = longer survival
Outline: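 Mice carrying the transplanted tumor received test compound or vehicle. Survival was recorded in each group, and the value is the treated-group measurement divided by that of the vehicle-treated control group.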

[1] = dose: 60.0 mg/kg/injection, schedule: Q01DX005 (ip), vehicle: saline with Tween-80
[2] = dose: 120.0 mg/kg/injection, schedule: Q01DX005 (ip), vehicle: saline with Tween-80
[3] = dose: 240.0 mg/kg/injection, schedule: Q01DX005 (ip), vehicle: saline with Tween-80
[4] = dose: 12.5 mg/kg/injection, schedule: Q01DX009 (ip), vehicle: saline with Tween-80
[5] = dose: 25.0 mg/kg/injection, schedule: Q01DX009 (ip), vehicle: saline with Tween-80
[6] = dose: 12.5 mg/kg/injection, schedule: Q01DX005 (ip), vehicle: Klucel + Tween-80
[7] = dose: 25.0 mg/kg/injection, schedule: Q01DX005 (ip), vehicle: Klucel + Tween-80
[8] = dose: 50.0 mg/kg/injection, schedule: Q01DX009 (ip), vehicle: saline with Tween-80
[9] = dose: 100.0 mg/kg/injection, schedule: Q01DX009 (ip), vehicle: saline with Tween-80
[10] = dose: 200.0 mg/kg/injection, schedule: Q01DX009 (ip), vehicle: saline with Tween-80
[11] = dose: 50.0 mg/kg/injection, schedule: Q01DX005 (ip), vehicle: saline with Tween-80
[12] = dose: 100.0 mg/kg/injection, schedule: Q01DX005 (ip), vehicle: saline with Tween-80
[13] = dose: 200.0 mg/kg/injection, schedule: Q01DX005 (ip), vehicle: saline with Tween-80

## CNc1cc(Cl)c(Cl)cc1[N+](=O)[O-]
dose: 37.5 mg/kg/injection, schedule: Q04DX003 (ip), vehicle: saline sonified
  T/C: 95 % of control
dose: 75.0 mg/kg/injection, schedule: Q04DX003 (ip), vehicle: saline sonified
  T/C: 95 % of control
dose: 150.0 mg/kg/injection, schedule: Q04DX003 (ip), vehicle: saline sonified
  T/C: 95 % of control

## O=C1OCCCCOC(=O)c2ccccc2SSc2ccccc21
dose: 100.0 mg/kg/injection, schedule: Q01DX001 (ip), vehicle: saline with Tween-80
  T/C: 90 % of control
dose: 200.0 mg/kg/injection, schedule: Q01DX001 (ip), vehicle: saline with Tween-80
  T/C: 99 % of control
dose: 400.0 mg/kg/injection, schedule: Q01DX001 (ip), vehicle: saline with Tween-80
  T/C: 99 % of control

## NC(=O)c1ccccc1NCCc1ccccc1
dose: 25.0 mg/kg/injection, schedule: Q04DX003 (ip), vehicle: saline with Tween-80
  T/C: 91 % of control
dose: 50.0 mg/kg/injection, schedule: Q04DX003 (ip), vehicle: saline with Tween-80
  T/C: 100 % of control
dose: 100.0 mg/kg/injection, schedule: Q04DX003 (ip), vehicle: saline with Tween-80
  T/C: 104 % of control and 97 % of control
dose: 400.0 mg/kg/injection, schedule: Q04DX003 (ip), vehicle: saline with Tween-80
  T/C: 97 % of control

## OCC1CC12c1ccccc1-c1ccccc12 (stereo unspecified)
[1]
  T/C: 98 % of control
[2]
  T/C: 96 % of control
[3]
  T/C: 101 % of control

## NC(C(=O)O)C(CC(=O)O)c1ccc(O)cc1 (stereo unspecified)
dose: 50.0 mg/kg/injection, schedule: Q01DX007 (ip), vehicle: saline
  T/C: 100 % of control
dose: 100.0 mg/kg/injection, schedule: Q01DX007 (ip), vehicle: saline
  T/C: 100 % of control
dose: 200.0 mg/kg/injection, schedule: Q01DX007 (ip), vehicle: saline
  T/C: 101 % of control

## CC1OC1C(=O)Sc1ccccc1 (stereo unspecified)
dose: 12.5 mg/kg/injection, schedule: Q01DX009 (ip), vehicle: saline
  T/C: 105 % of control
dose: 25.0 mg/kg/injection, schedule: Q01DX009 (ip), vehicle: saline
  T/C: 110 % of control
dose: 50.0 mg/kg/injection, schedule: Q01DX009 (ip), vehicle: saline
  T/C: 106 % of control

## CC(C)=CCC1=C(OC2OC(CO)C(O)C(O)C2O)C(=O)c2ccccc2C1=O (stereo unspecified)
dose: 6.25 mg/kg/injection, schedule: Q01DX009 (ip), vehicle: saline with Tween-80
  T/C: 121 % of control
[4]
  T/C: 118 % of control
[5]
  T/C: 114 % of control

## CC(=O)Oc1ccc(C(O)CN(C)OC(C)=O)cc1OC(C)=O (stereo unspecified)
[6]
  T/C: 100 % of control
[7]
  T/C: 101 % of control
dose: 50.0 mg/kg/injection, schedule: Q01DX005 (ip), vehicle: Klucel + Tween-80
  T/C: 101 % of control and 92 % of control

## O=C(O)c1cc(C(=O)C(=O)c2cc(C(=O)O)c(O)c3ccccc23)c2ccccc2c1O
[8]
  T/C: 95 % of control
[9]
  T/C: 95 % of control
[10]
  T/C: 101 % of control

## C/C=C(\C)C(=O)OC1CC(C)(O)C(=O)C(OC(=O)/C(C)=C/C)C2(C)CCC(O)(C(C)C)C12 (stereo unspecified)
[8]
  T/C: 105 % of control
[9]
  T/C: 101 % of control
[10]
  T/C: 100 % of control
dose: 400.0 mg/kg/injection, schedule: Q01DX009 (ip), vehicle: saline with Tween-80
  T/C: 95 % of control

## CCOS(=O)(=O)CC(C)C(C)C (stereo unspecified)
[11]
  T/C: 98 % of control
[12]
  T/C: 104 % of control
[13]
  T/C: 101 % of control

## CC1COS(=O)O1 (stereo unspecified)
dose: 20.0 mg/kg/injection, schedule: Q01DX009 (ip), vehicle: saline sonified
  T/C: 109 % of control
dose: 40.0 mg/kg/injection, schedule: Q01DX009 (ip), vehicle: saline sonified
  T/C: 109 % of control

## NC(=S)N/N=C/c1cn(-c2ccccc2[N+](=O)[O-])cn1
dose: 100.0 mg/kg/injection, schedule: Q04DX003 (ip), vehicle: Klucel (hydroxypropylcellulose) (HPC)
  T/C: 103 % of control
dose: 200.0 mg/kg/injection, schedule: Q04DX003 (ip), vehicle: Klucel (hydroxypropylcellulose) (HPC)
  T/C: 90 % of control

## O=C(SCc1oc2ccccc2c1O)c1ccccc1
[4]
  T/C: 103 % of control
[5]
  T/C: 104 % of control
[8]
  T/C: 112 % of control
[9]
  T/C: 94 % of control

## CC(Br)C(C)(C)OO (stereo unspecified)
dose: 100.0 mg/kg/injection, schedule: Q01DX001 (ip), vehicle: Klucel (hydroxypropylcellulose) (HPC)
  T/C: 101 % of control
dose: 200.0 mg/kg/injection, schedule: Q01DX001 (ip), vehicle: Klucel (hydroxypropylcellulose) (HPC)
  T/C: 95 % of control
dose: 400.0 mg/kg/injection, schedule: Q01DX001 (ip), vehicle: Klucel (hydroxypropylcellulose) (HPC)
  T/C: 100 % of control

## CC(=O)OCC1OC(Nc2[nH]c(=O)n(C)c(=O)c2C=O)C(OC(C)=O)C(OC(C)=O)C1OC(C)=O (stereo unspecified)
[1]
  T/C: 105 % of control
[2]
  T/C: 109 % of control
[3]
  T/C: 103 % of control

## O=S(=O)(c1ccc2ccccc2c1)N(CCCCCN(S(=O)(=O)c1ccc2ccccc2c1)S(=O)(=O)c1ccc2ccccc2c1)S(=O)(=O)c1ccc2ccccc2c1
[1]
  T/C: 104 % of control
[2]
  T/C: 94 % of control

## COc1ccc(C(CC(=O)O)c2cc3c(cc2OC)OCO3)cc1 (stereo unspecified)
dose: 50.0 mg/kg/injection, schedule: Q01DX005 (ip), vehicle: distilled water + Tween-80
  T/C: 94 % of control
dose: 100.0 mg/kg/injection, schedule: Q01DX005 (ip), vehicle: distilled water + Tween-80
  T/C: 96 % of control
dose: 200.0 mg/kg/injection, schedule: Q01DX005 (ip), vehicle: distilled water + Tween-80
  T/C: 90 % of control

## CC(Cl)C(=O)N/N=C(/c1ccccc1)C(C)(C)C (stereo unspecified)
[8]
  T/C: 89 % of control
[9]
  T/C: 86 % of control

## COc1cc(O)c(/C=N\O)c(OC)c1
[1]
  T/C: 96 % of control
[2]
  T/C: 98 % of control
[3]
  T/C: 98 % of control

## CCOC(=O)N1C=CC=C(Br)C1C#N (stereo unspecified)
[11]
  T/C: 114 % of control

## C/C(CCl)=N\NC1=NC(C)(CCl)P(=O)(NNc2ncccn2)S1 (stereo unspecified)
dose: 3.75 mg/kg/injection, schedule: Q01DX005 (ip), vehicle: saline
  T/C: 104 % of control
dose: 7.5 mg/kg/injection, schedule: Q01DX005 (ip), vehicle: saline
  T/C: 106 % of control
dose: 15.0 mg/kg/injection, schedule: Q01DX005 (ip), vehicle: saline
  T/C: 100 % of control and 113 % of control
dose: 30.0 mg/kg/injection, schedule: Q01DX005 (ip), vehicle: saline
  T/C: 106 % of control and 113 % of control and 97 % of control
dose: 60.0 mg/kg/injection, schedule: Q01DX005 (ip), vehicle: saline
  T/C: 105 % of control and 106 % of control and 107 % of control
dose: 120.0 mg/kg/injection, schedule: Q01DX005 (ip), vehicle: saline
  T/C: 101 % of control

## O=C(O)c1cc(C(=O)CC(=O)c2cc(C(=O)O)c(O)c3ccccc23)c2ccccc2c1O
[8]
  T/C: 94 % of control
[9]
  T/C: 88 % of control

## COc1cc(COC(=O)Nc2ccccc2F)cc(OC)c1OC
[11]
  T/C: 93 % of control
[12]
  T/C: 101 % of control
[13]
  T/C: 92 % of control

## Cc1ccc(S(=O)(=O)N=S(C)(=O)CCCl)cc1 (stereo unspecified)
dose: 25.0 mg/kg/injection, schedule: Q04DX003 (ip), vehicle: saline
  T/C: 100 % of control
dose: 50.0 mg/kg/injection, schedule: Q04DX003 (ip), vehicle: saline
  T/C: 107 % of control
dose: 100.0 mg/kg/injection, schedule: Q04DX003 (ip), vehicle: saline
  T/C: 100 % of control
dose: 100.0 mg/kg/injection, schedule: Q04DX003 (ip), vehicle: suspension in saline
  T/C: 94 % of control

## O=[N+]([O-])c1cc(Cl)ccc1Cl
[8]
  T/C: 100 % of control
[9]
  T/C: 100 % of control
[10]
  T/C: 91 % of control

## O=C1C=C(Nc2ncccn2)c2ccccc2C1=O
dose: 6.25 mg/kg/injection, schedule: Q01DX005 (ip), vehicle: Klucel + Tween-80
  T/C: 115 % of control
[6]
  T/C: 98 % of control
[7]
  T/C: 104 % of control

## Cn1c(=O)c2c(nc(Br)n2C)n(C)c1=O
dose: 25.0 mg/kg/injection, schedule: Q01DX009 (ip), vehicle: Klucel (hydroxypropylcellulose) (HPC)
  T/C: 94 % of control
dose: 50.0 mg/kg/injection, schedule: Q01DX009 (ip), vehicle: Klucel (hydroxypropylcellulose) (HPC)
  T/C: 109 % of control

## CN(N=O)C(=O)NCC1OC(n2cnc3c(=O)[nH]cnc32)C(O)C1O (stereo unspecified)
dose: 50.0 mg/kg/injection, schedule: Q01DX005 (ip), vehicle: saline
  T/C: 100 % of control
dose: 100.0 mg/kg/injection, schedule: Q01DX005 (ip), vehicle: saline
  T/C: 105 % of control
dose: 200.0 mg/kg/injection, schedule: Q01DX005 (ip), vehicle: saline
  T/C: 121 % of control
